Laboratory results as given in patent US8227207B2, “Bioactive peptides derived from the proteins of egg white by means of enzymatic hydrolysis” (Consejo Superior de Investigaciones Cientifcas, priority 2004, dated 2012).
Residues, ends and D or L forms follow the SMILES beside them.

Biological target: T1, angiotensin converting enzyme (ACE, EC 3.4.15.1) (Oryctolagus cuniculus, UniProt P12822)
T1 sequence (P12822 34-1310): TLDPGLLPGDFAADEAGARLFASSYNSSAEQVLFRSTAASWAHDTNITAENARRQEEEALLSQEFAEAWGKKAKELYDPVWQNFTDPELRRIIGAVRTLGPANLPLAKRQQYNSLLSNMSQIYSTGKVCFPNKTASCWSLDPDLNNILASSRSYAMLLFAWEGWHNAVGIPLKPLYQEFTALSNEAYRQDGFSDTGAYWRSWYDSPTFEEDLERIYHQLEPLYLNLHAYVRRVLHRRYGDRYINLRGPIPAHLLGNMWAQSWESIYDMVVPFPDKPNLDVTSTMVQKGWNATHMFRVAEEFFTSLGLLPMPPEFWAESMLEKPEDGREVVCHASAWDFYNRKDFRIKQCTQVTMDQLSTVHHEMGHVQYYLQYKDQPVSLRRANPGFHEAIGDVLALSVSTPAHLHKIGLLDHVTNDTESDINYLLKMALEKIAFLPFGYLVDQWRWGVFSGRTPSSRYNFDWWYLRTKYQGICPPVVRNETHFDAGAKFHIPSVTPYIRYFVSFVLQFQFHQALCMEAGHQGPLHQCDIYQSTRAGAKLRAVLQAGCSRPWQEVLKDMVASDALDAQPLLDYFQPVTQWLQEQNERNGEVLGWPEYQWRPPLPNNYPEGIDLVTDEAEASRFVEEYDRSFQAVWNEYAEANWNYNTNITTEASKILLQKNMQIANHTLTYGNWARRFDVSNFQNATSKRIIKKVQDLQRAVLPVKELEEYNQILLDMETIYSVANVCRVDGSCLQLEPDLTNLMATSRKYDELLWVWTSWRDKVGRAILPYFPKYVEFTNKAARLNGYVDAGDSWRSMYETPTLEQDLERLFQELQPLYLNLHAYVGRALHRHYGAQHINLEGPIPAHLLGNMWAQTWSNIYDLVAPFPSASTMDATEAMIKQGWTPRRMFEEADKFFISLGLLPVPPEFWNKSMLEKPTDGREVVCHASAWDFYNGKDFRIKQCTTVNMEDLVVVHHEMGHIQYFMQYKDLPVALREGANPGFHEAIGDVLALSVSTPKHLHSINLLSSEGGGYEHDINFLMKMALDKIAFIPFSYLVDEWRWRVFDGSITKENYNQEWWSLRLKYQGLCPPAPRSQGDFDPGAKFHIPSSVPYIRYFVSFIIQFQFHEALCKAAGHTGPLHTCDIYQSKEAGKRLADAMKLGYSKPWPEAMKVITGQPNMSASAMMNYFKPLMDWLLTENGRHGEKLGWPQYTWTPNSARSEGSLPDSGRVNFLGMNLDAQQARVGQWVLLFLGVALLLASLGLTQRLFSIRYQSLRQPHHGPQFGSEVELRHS
Type: biochemical
Method: The inhibitory activity of the angiotensin converting enzyme (ACE) is measured in vitro according to the method of D. W. Cushman and H. S. Cheung (Spectrophotometric assay and properties of the angiotensin-converting enzyme of rabbit lung. Biochemical Pharmacology, 1971, 20: 1637-1648), later on modified by Y. K. Kim, S. Yoon, D. Y. Yu, B. Lönnerdal and B. H. Cheung (Novel angiotensin-I-converting enzyme inhibitory peptides derived from recombinant human αs1-casein expressed in Escherichia coli, Journal of Dairy Research 1999, 66, 431-439).
The substrate hippuryl histidyl leucine (HHL, Sigma Chemicals Co., St. Louis, Mo., USA) is dissolved in a 0.1 M borate buffer with 0.3 M NaCl pH 8.3 to obtain a final concentration of 5 mM. To 100 μl of substrate are added 40 μl of each of the samples whose ACEI activity it is wished to determine. The ACE enzyme (EC 3.4.15.1, Sigma) is added, dissolved in 50% glycerol and diluted 1/10 in bidistilled water at the moment of conducting the assay. The reaction is carried out at 37° C. for 30 minutes in a water-bath. The enzyme is deactivated by lowering the pH with 150 μl of 1 N HCl. The hippuric acid formed is extracted with 1000 μl of ethyl acetate. Following vortex stirring for 20 seconds, it is centrifuged at 4000 rpm for 10 minutes at room temperature. 750 μl of the organic phase are taken and evaporated by heating at 95° C. for 10 minutes. The hippuric acid residue is redissolved in 800 μl of bidistilled water and, following stirring for 20 seconds, the absorbency at 228 nm is measured in a Dur-70 spectrophotometer from Beckman Instruments, Inc., Fullerton, USA.
In order to calculate the percentage of ACEI activity, the following formula is used
The blank is used for correcting the background absorbency. This contains substrate, enzyme and 20 μl of bidistilled water in place of the sample, and the reaction is halted at zero time. The control implies a hundred percent of the enzymatic action on the substrate in the absence of inhibitors and contains 20 μl of water in place of the sample and is incubated the same time as the sample.
The results are presented as the IC50 (μM or μg/ml) or concentration at which 50% of the enzyme's activity is inhibited. The concentration of protein is determined by means of the bicinchonomic acid (BCA) assay (Pierce, Rockford, Ill., USA) using bovine seroalbumin as reference.

SMILES: CC[C@H](C)[C@H](NC(=O)[C@@H]1CCCN1C(=O)[C@H](Cc1ccc(O)cc1)NC(=O)[C@H](CCCNC(=N)N)NC(=O)[C@H](CCC(=O)O)NC(=O)[C@H](CCC(=O)O)NC(=O)[C@H](C)NC(=O)[C@@H](N)Cc1ccc(O)cc1)C(=O)N[C@@H](CC(C)C)C(=O)O [SEQ. ID. N^o 6] (H-YAEERYPIL-OH; N-terminus and C-terminus assumed)
- ACEI activity in vitro (in words) (peptides): potent ACEI activity
- IC50 (read-out: ACEI activity IC50, synthetic peptides): 4.7 µM
